Measured values from article PMC5642494 (Oncotarget, 2017).
Where two headings read alike, the source gives them in different places.

Assays:
MDA-MB-361 cells [1] = test: Annexin V/PI flow cytometry, MDA-MB-361; type: cell-based, human; conditions: 3 DT (untreated 45.7%)
Description: Annexin V/PI staining was performed following the vendor’s specifications in MCF7 and MDA-MB-361 cells. […] Raw data were analyzed with FlowJo X software. Events were gated for debris exclusion and singlets selection. A minimum of 10,000 cells were analyzed per sample.

MDA-MB-361 cells [2] = test: PI high content imaging of G1 arrest and cell proliferation, MDA-MB-361; type: cell-based; conditions: Homo sapiens, at least 2 DT
Description: Relative IC50/EC50 values were determined by curve fitting to a four parameter logistic equation: Y = bottom + ((top-bottom)/ (1+exp(HillSlope*(X – LnIC50)), where X is the natural log of dose/concentration, Y is response, decreasing as X increases, top and bottom are plateaus in the same units as Y, lnIC50 is the natural log of potency, in the same log units as X, and HillSlope measures the steepness of the curve. Data were plotted using GraphPad Prism. […]
www.impactjournals.com/oncotarget/ Oncotarget Supplementary Materials
Preclinical characterization of abemaciclib in hormone receptor […]
Enzyme kinetics of CDK6/cyclin D3 complexes Cells were fixed with para-formaldehyde and Rb phosphorylation at Serine 780 was detected using CDK6/cyclin D3 activity was measured by the a primary mouse anti-Rb (PS780) antibody followed phosphorylation of CTRF using [g-33P] […] Plates were read in an kinase buffer containing 68 mM Hepes at pH 7.5, 6.67 mM Acumen Explorer eX3 (TTP Labtech). […] 10µL of CDK6/cyclin corresponding to 500-530 nm and the percentage of D3 enzyme complex (Millipore 14-519, #D13BP009NA) cells with pRb signal relative to the total PI stained (1 nM final concentration in the assay) was added onto subpopulation was calculated by the instrument’s software a mix of substrate and test compound. […]

ZR-75-1 xenograft = ZR-75-1 xenograft efficacy in NOD SCID mice; type: in vivo, mouse
Description: Control animals were treated with vehicle (1% HEC/ 25 mM phosphate buffer, pH = 2) using the same schedule of dosing. The red bar just above the X-axis illustrates the duration of the treatment period. Tumor volume measurements were taken routinely during the course of the study and are plotted as mean +/- SEM versus days following tumor cell implantation. (B) Body weights were recorded routinely during the course of the study and are plotted as mean % change (+/– SEM) relative to the mean body weight recorded on the day just prior to the first day of dosing (baseline day = 27). (C) The waterfall plots indicate the relative tumor volumes for individual animals which were determined at the end of the dosing period (study day 55). […] Growth inhibition is observed in those instances where the calculated changes in %DT/C are less than 100% whereby greater inhibition results in smaller %DT/C values. Change in %DT/C values that are less than zero indicate regressions whereby the tumor volumes on day 55 are smaller than the baseline tumor volume measured on the day prior to the initiation of dosing (baseline day = day 27). […] The tumor volumes measured on day 27 served as the baseline volumes for the calculation of %DT/C. […] Potential CDK9 inhibition was assessed by measuring the expression of MCL1 or phosphorylation of serine 2 on the C-terminal domain repeat on RNA polymerase II (pCTD). […]

pRb at S807/811 = test: Immunoblotting of phospho-Rb in ZR-75-1, T-47D and MCF7 cells; type: cell-based, human; conditions: MCF7, T-47D, ZR-75-1 cells; 24 hours; 0.027 µM to 20 µM
Description: Protein lysates were prepared from the cells and analyzed for the expression of various biomarkers by immunoblotting. The biomarkers included phosphor-Rb at serines 807/811,phosphorylation of serine 2 on the C-terminal repeat domain on RNA polymerase II (pCTD) and MCL1. Images of Western blots were cropped to denote the relevant band(s) for clarity. […] Ki-67 positive events were obtained by gating versus background signal.

IC50 (MDA-MB-361 cells [2]; n = 2, read-out: IC50 2n (G1 arrest)): 0.038 ± 0.002 µM | IC50 (MDA-MB-361 cells [2]; n = 2, read-out: IC50 Cell number): 0.045 ± 0.014 µM
SMILES: CCN1CCN(Cc2ccc(Nc3ncc(F)c(-c4cc(F)c5nc(C)n(C(C)C)c5c4)n3)nc2)CC1 [abemaciclib, Abemaciclib]
cells positive for annexin V (MDA-MB-361 cells [1]; 0.5 µM): 84.6% | cells positive for annexin V (MDA-MB-361 cells [1]; 2 µM): 88.8% | tumor volume (ZR-75-1 xenograft; 75 mg/kg PO QDx28, NOD SCID mice, ZR-75-1 xenograft): measured reduction in tumor volume (regression) | anti-tumor activity (ZR-75-1 xenograft; 50 or 75 mg/kg PO QDx28, single agent): Dose-dependent anti-tumor activity | levels of phosphorylated Rb (pRb) at S807/811 (pRb at S807/811): decrease in levels of phosphorylated Rb
